Laboratory results reported in patent US20250236614A1, “BICYCLIC TETRAHYDROAZEPINE DERIVATIVES” (Hoffmann-La Roche Inc., priority 2022, published 2025).
Read-outs that look alike come from different tables or passages of the source.

Experiments:
[1] = molecular target: T1, hDGKzeta(1-928)-N-His (DGKZ) (Homo sapiens, UniProt Q13574); experiment: In vitro DGK inhibition assay (ADP-Glo, in house), DGK zeta; assay type: biochemical; conditions: isomer A; 2 nM DGK ζ, 50 μM ATP, 125 μM DLG in liposomes, 1 hour reaction; read-out: DGKzeta ADP Glo assay IC50
T1 construct: hDGKzeta(1-928)-N-His; His (N)
T1 sequence (Q13574 whole entry): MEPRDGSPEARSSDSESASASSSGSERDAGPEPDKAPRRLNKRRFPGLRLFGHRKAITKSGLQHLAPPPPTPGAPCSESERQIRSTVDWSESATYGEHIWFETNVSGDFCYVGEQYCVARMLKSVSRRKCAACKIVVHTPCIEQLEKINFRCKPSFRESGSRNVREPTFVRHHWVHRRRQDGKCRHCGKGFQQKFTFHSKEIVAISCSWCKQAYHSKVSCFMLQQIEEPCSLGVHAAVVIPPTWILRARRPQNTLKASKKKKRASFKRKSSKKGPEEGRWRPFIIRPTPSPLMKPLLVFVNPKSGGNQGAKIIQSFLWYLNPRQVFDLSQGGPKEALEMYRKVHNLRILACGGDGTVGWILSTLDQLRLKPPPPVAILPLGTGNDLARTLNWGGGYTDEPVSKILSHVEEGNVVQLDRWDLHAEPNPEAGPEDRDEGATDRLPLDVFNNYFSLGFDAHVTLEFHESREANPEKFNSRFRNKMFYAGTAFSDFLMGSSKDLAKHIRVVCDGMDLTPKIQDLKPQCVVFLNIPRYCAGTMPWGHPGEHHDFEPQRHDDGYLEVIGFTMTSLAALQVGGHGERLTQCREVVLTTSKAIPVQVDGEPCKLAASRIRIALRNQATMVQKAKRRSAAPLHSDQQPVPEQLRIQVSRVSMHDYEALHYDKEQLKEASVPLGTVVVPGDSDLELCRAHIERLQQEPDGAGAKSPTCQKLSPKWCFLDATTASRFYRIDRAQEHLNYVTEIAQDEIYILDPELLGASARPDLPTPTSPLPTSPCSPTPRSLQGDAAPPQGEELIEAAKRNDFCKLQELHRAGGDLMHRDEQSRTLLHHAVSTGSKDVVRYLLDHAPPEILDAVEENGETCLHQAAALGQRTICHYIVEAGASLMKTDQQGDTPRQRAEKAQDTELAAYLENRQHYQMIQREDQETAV
Experimental: DGK α and ζ kinase use ATP to phosphorylate the substrate 1,2-dilauroyl-sn-glycerol (DLG, incorporated in the liposomes). ATP is converted to ADP as a result of this enzymatic reaction.
After the kinase reaction, an ATP-depletion reagent is added to terminate the kinase reaction and deplete any remaining ATP, leaving only ADP. Second, a detection reagent is added to simultaneously convert ADP to ATP and allow the newly synthesized ATP to be converted to light using a coupled luciferase/luciferin reaction.
Full length DGKA and Z were expressed in Sf21 insect cells by infecting the cells with the baculovirus stock at MOI of 2. Purification of both enzymes was performed as previously described by Takahashi et al., PeerJ, 2018 (Takahashi, D.; Sakane, F. Expression and purification of human diacylglycerolkinase alpha from baculovirus-infected insect cells for structural studies. PeerJ2018, 6, No. e5449).
A concentrated liposome solution was prepared in assay buffer without DTT and BSA: 2 mM of DLG in 21 mM of total liposome (2 mM DLG/8 mM PS/11 mM PC). The reaction mixtures contain the assay buffer with a final DLG concentration of 125 μM ATP concentrations of 25 μM (for DGKA assay) or 50 μM (for DGKZ assay). The reactions were started by addition of DGK α and ζ kinases at 4 nM and 2 nM final concentrations, respectively. After 1 hour reaction, the amount of ADP formed was detected with the ADP-Glo kinase assay (Promega) according to the manufacturer instructions. Compounds were added in 11I-points dose response, starting at 10 mM, 1:3 dilutions, with a final DMSO concentration of […]. The multidrop combi was used as a liquid handler and luminescence was read with 0.5 s by the envision reader (PE).

[2] = test system: primary human T-cells; experiment: T-cell proliferation assay (CellTiter-Glo); assay type: cell-based; conditions: isomer A; for EC50: CD3 antibody-stimulated T-cells, CellTiter-Glo after 5 days, read-out: Tcell Proliferation CD3 EC50; for Emax: read-out: Emax proliferation (% activation)
Experimental: Expanded primary human T-cells are thawed and cultured in RPMI 1640 (Gibco, #61870-010)+5% human serum (HS, Sigma, #H3667)+1 mM Sodium Pyruvate (Gibco, #11360-039)+50 μM 2-mercaptoethanol (Gibco, #31350-010) and 1× Pen-Strep (Life Technologies, #15140122) medium at density of 2 Mio/ml for 3 hours in 5% CO2, 37° C. and 95% humidity. For coating of plates, PBS++ only or PBS++ with CD3 antibody (concentration depending on donor and determined by CD3 titrations) is added 100 μl/well to Poly-D Lysine coated 96-well plates. Plates are sealed and incubated at room temperature for 3 hours on a table-top rocking platform. After incubation, plates are washed once with PBS−− and filled with 40 μl/well culture medium only. Compounds are then added (see next section) to medium only plates. After 3 hours of culturing the T-cells, cells are filtered through a cell strainer (Miltenyi Biotech, #130-041-407), counted again and concentration is adjusted to 1.25 Mio/ml.
Cells are then seeded 80 μl/well to the 40 μl/well including dispensed compounds according to plate layout. By adding cells, compounds are further diluted 1:3, and resulting in 100k cells/120 μl/well. After 48 hours 40 μl of supernatant is collected carefully from the top while not disturbing the cells. Cells are assessed for proliferation 5 days later by measuring […] using CellTiterGlo (Promega).
Compounds were added in a 5 or 6 pt dose response with the Tecan D300e Digital Dispenser, all conditions 3 times more concentrated than the end-concentration, since cells are added afterwards (80 μl cells to 40 μl prepared medium with treatment). The DR was starting at 20 μM or 10 μM final top concentration and a dilution factor of 3.333. The positive control was the reference compound A1 that was added in a dose response as well, additionally to 3 wells of only 20 μM representing the positive stimulator control. All wells were normalized with DMSO to a final concentration of 0.6% (0.2% end-concentration).
After 5 days, for detection of ATP which is directly proportional to the number of cells present per well, the CellTiter-Glo® 2.0 Reagent is used. After visual control for toxicity or precipitations of the tested compounds, the plates are equilibrated to room temperature for 45 minutes. CellTiter-Glo® 2.0 Reagent is equilibrated to room temperature as well. After equilibration, an equal amount of CellTiter-Glo reagent is added to the cells (80 μl/well) with an electronic multichannel pipette. Plates are placed on a rocking platform for 15 minutes at room temperature. After incubation, the bottom of the plates is sealed with backing tape. Luminescence is measured with PHERAstar FSX (interval time 0.5 sec, gain 3000, focal height 15 mm) and exported as CSV file for analysis in Genedata screener.
CD3 and PBS plates were analysed separately in Genedata Screener using Roche Normalization PCT_POS_CTRL with DMSO set as Neutral Control and 20 μM of the reference compound A1 set as Stimulator Control/100%.
For CD3 conditions EC50 and Emax of the fitted sigmoidal curve were reported. If no curve could be fitted, the EC50 was reported as blank field and the Emax was based on individual data points. […] Compounds which activate unstimulated cells (see IL2 measurements) or compounds which negatively affected viability were flagged.

[3] = Homo sapiens, T-cell, 120 h, CD3 condition, 5 days, 20 μM reference compound A1 = 100%, DMSO neutral control

Compound | IC50 [1] [µM] | EC50 [2] [µM] | Emax proliferation (% activation) ([2]; CD3 condition, 5 days, 20 μM reference compound A1 = 100%, DMSO neutral control) | EC50 ([2]; Homo sapiens, T-cell, 120 h) [µM] | Emax [2, 3] [%]
2-methyl-2-[5-[(3S)-3-amino-5,5,7-trifluoro-2-oxo-1-[[4-(trifluoromethoxy)phenyl]methyl]-3,4-dihydro-1-benzazepin-8-yl]-1,3,4-oxadiazol-2-yl]propanenitrile and 2-methyl-2-[5-[(3R)-3-amino-5,5,7-trifluoro-2-oxo-1-[[4-(trifluoromethoxy)phenyl]methyl]-3,4-dihydro-1-benzazepin-8-yl]-1,3,4-oxadiazol-2-yl]propanenitrile [Example 2] | 1.81 | 0.315 | 161 |  | 
CC(C)(c1nnc(-c2cc3c(cc2F)C(F)(F)CC(N)C(=O)N3Cc2ccc(Oc3ccccc3)cc2)o1)S(C)(=O)=O (racemic) [Example 5, (3S)-3-amino-5,5,7-trifluoro-8-[5-(1-methyl-1-methylsulfonyl-ethyl)-1,3,4-oxadiazol-2-yl]-1-[(4-phenoxyphenyl)methyl]-3,4-dihydro-1-benzazepin-2-one and (3R)-3-amino-5,5,7-trifluoro-8-[5-(1-methyl-1-methylsulfonyl-ethyl)-1,3,4-oxadiazol-2-yl]-1-[(4-phenoxyphenyl)methyl]-3,4-dihydro-1-benzazepin-2-one] | 2.4 |  |  | 0.684 | 249
CC(C)(C#N)c1nnc(-c2cc3c(cc2F)C(F)(F)CC(N)C(=O)N3Cc2ccc(-n3cc(C(F)(F)F)cn3)cc2)o1 (racemic) [Example 33, 2-[5-[(3S)-3-amino-5,5,7-trifluoro-2-oxo-1-[[4-[4-(trifluoromethyl)pyrazol-1-yl]phenyl]methyl]-3,4-dihydro-1-benzazepin-8-yl]-1,3,4-oxadiazol-2-yl]-2-methyl-propanenitrile and 2-[5-[(3R)-3-amino-5,5,7-trifluoro-2-oxo-1-[[4-[4-(trifluoromethyl)pyrazol-1-yl]phenyl]methyl]-3,4-dihydro-1-benzazepin-8-yl]-1,3,4-oxadiazol-2-yl]-2-methyl-propanenitrile] | 1.68 |  |  | 0.0988 | 128
COC(F)(c1nnc(-c2cc3c(cc2F)C(F)(F)C[C@H](N)C(=O)N3Cc2ccc(OC(F)(F)F)cc2)o1)C(F)(F)F (single isomer, unassigned) [Example 4] | 8.93 |  |  | 0.14 | 112
CC(C)(C)c1nnc(-c2cc3c(cc2F)C(F)(F)C[C@@H](N)C(=O)N3Cc2ccc(OC3CCCC3)cc2)o1 (single isomer, unassigned) [Example 7] | 1.73 |  |  | 0.127 | 110
CC(C)(c1nnc(-c2cc3c(cc2F)C(F)(F)C[C@@H](N)C(=O)N3Cc2ccc(-c3ccc(C(F)(F)F)cn3)cc2)o1)S(C)(=O)=O (single isomer, unassigned) [Example 8] | 16.1 |  |  | 0.185 | 86
COc1ccc(-c2ccc(CN3C(=O)[C@H](N)CC(F)(F)c4cc(F)c(-c5nnc(C(C)(C)C#N)o5)cc43)cc2)cc1 (single isomer, unassigned) [Example 9] | 2.36 |  |  | 0.267 | 114
COc1ccc(-c2ccc(CN3C(=O)[C@H](N)CC(F)(F)c4cc(F)c(-c5nnc(C(C)(C)S(C)(=O)=O)o5)cc43)cc2)cc1 (single isomer, unassigned) [Example 10] | 11.5 |  |  | 0.377 | 76
CC(C)(C#N)c1nnc(-c2cc3c(cc2F)C(F)(F)C[C@@H](N)C(=O)N3Cc2ccc(-c3ccc(C(F)(F)F)cn3)cc2)o1 (single isomer, unassigned) [Example 12] | 2.9 |  |  | 0.409 | 152
CCN1CC(c2nnc(-c3cc4c(cc3F)C(F)(F)C[C@@H](N)C(=O)N4Cc3ccc(OC(F)(F)F)cc3)o2)CC(F)(F)C1 (single isomer, unassigned) [Example 13] | 2.26 |  |  | 0.0777 | 79
N[C@@H]1CC(F)(F)c2cc(F)c(-c3nnc(N4CCCC4)o3)cc2N(Cc2ccc(-c3noc(C(F)(F)F)n3)cc2)C1=O (single isomer, unassigned) [Example 14] | 17.9 |  |  | 0.593 | 149
N[C@@H]1CC(F)(F)c2cc(F)c(-c3nnc(N4CCC(F)(F)CC4)o3)cc2N(Cc2ccc(-c3noc(C(F)(F)F)n3)cc2)C1=O (single isomer, unassigned) [Example 15] | 1.81 |  |  | 0.127 | 108
CC(C)(c1nnc(-c2cc3c(cc2F)C(F)(F)C[C@@H](N)C(=O)N3Cc2ccc(-c3noc(C(F)(F)F)n3)cc2)o1)S(C)(=O)=O (single isomer, unassigned) [Example 16] | 14.9 |  |  | 0.296 | 241
N[C@@H]1CC(F)(F)c2cc(F)c(-c3nnc(N4CCOC5(CC5)C4)o3)cc2N(Cc2ccc(-c3noc(C(F)(F)F)n3)cc2)C1=O (single isomer, unassigned) [Example 17] | 3.25 |  |  | 0.558 | 115
CC(C)(C#N)c1nnc(-c2cc3c(cc2F)C(F)(F)C[C@@H](N)C(=O)N3Cc2ccc(-c3ncc(C(F)(F)F)cc3F)cc2)o1 (single isomer, unassigned) [Example 19] | 7.24 |  |  | 0.984 | 85
CC(C)(C#N)c1nnc(-c2cc3c(cc2F)C(F)(F)C[C@@H](N)C(=O)N3Cc2ccc(-n3nnc(C(F)(F)F)n3)cc2)o1 (single isomer, unassigned) [Example 20] | 2.14 |  |  | 0.205 | 118
N[C@@H]1CC(F)(F)c2cc(F)c(-c3nnc(N4CCCC4)o3)cc2N(Cc2ccc(-n3cnc(C(F)(F)F)n3)cc2)C1=O (single isomer, unassigned) [Example 21] | 11.8 |  |  | > 10 | 43
N[C@@H]1CC(F)(F)c2cc(F)c(-c3nnc(N4CCC(F)(F)C4)o3)cc2N(Cc2ccc(-n3cnc(C(F)(F)F)n3)cc2)C1=O (single isomer, unassigned) [Example 22] | 17.8 |  |  | 2.11 | 62
CC(C)(c1nnc(-c2cc3c(cc2F)C(F)(F)C[C@@H](N)C(=O)N3Cc2ccc(-n3cnc(C(F)(F)F)n3)cc2)o1)S(C)(=O)=O (single isomer, unassigned) [Example 23] | 15.4 |  |  | > 10 | 98
